Marks after values point to notes of the source that are not given here.
How the values were obtained:
Format in all cases: in vivo, human
[1] = test system: different aged patients with occasional constipation; assay: Weekly number of spontaneous bowel movements by age (Example 5); conditions: 48 μg/day, 4 weeks; all aged groups, even 65 years and older
Method: Multi-center, parallel-group, double-blind, placebo-controlled study was performed to compare the effect of Compound A on improving weekly number of spontaneous bowel movements among different aged patients with occasional constipation. The patients were received 48 μg (total daily dose) of Compound A (24 μg of Compound A b.i.d) for 4 weeks. The bowel movements in the patient were recorded during the treatment.

[2] = Serum electrolyte balance, open-label 24/48-week safety study (Example 1)
Method: Multi-center, open-label study was performed to evaluate the safety of 48 μg of Compound A (13,14-dihydro-15-keto-16,16-difluoro-PGE1) (24 μg of Compound A b.i.d) when administered daily for 24 weeks (6 months) or 48 weeks (12 months) to subjects with occasional constipation. […] After 14-day drug-free washout period, they received 48 μg of Compound A (24 μg of Compound A b.i.d) orally for 48 weeks.
Sodium, potassium, chloride, calcium, magnesium and phosphorus ion concentrations in serum of patients (n=299) were measured before, and at 6, 12, 18, 24, 30, 36, 48 and 50 weeks after the start of the Compound A treatment.
The laboratory standard values for the panel of electrolytes were taken from the normal reference ranges for the central laboratory.

[3] = test system: male and female patients with occasional constipation; assay: Weekly number of spontaneous bowel movements in male vs. female patients (Example 4); conditions: 48 μg/day, 4 weeks
Method: Multi-center, parallel-group, double-blind, placebo-controlled study was performed to compare the effect of Compound A on the weekly number of spontaneous bowel movements in male and female patients. Male and female patients with occasional constipation were received 48 μg (total daily dose) of Compound A (24 μg of Compound A b.i.d) for 4 weeks. The bowel movements in the patient were recorded during the treatment.

[4] = test system: subjects with occasional constipation; assay: MOS SF-36 quality of life assessment, 48-week study (Example 6)
Method: A 48-week multi-center study was performed to assess the safety and efficacy of 48 μg (total daily dose) of Compound A to subjects with occasional constipation. […] After 14-day drug-free washout period, they received orally 48 μg of Compound A (24 μg of […], b.i.d) daily for 48 weeks.
The subjects completed the Medical Outcomes Study (MOS) 36-item short form (SF-36), i.e., a conventionally used QOL assessment form, at enrollment (baseline) and end of treatment (Week 48). Components of the MOS SF-36 (Med Care 30(6),473-483, 1992) are outlined below: • Physical component: Physical Function; Role-Physical, Bodily Pain and General Health • Mental component: Vitality, Social Function, Role-Emotional and Mental Health
Each of the 8 components was scored within the guidelines of the publisher, including the publisher's guidelines for imputing missing variables. The change from baseline in each of the 8 component scores at the end of treatment (Week 48) were recorded and evaluated with paired t-tests.

[5] = test system: patients with chronic constipation; assay: Randomized withdrawal study, post-treatment response after 4 weeks of active treatment (Example 2)
Method: Multi-center, double-blind, randomized, placebo-controlled study was performed to assess post-treatment response, in a portion of the total population, after four (4) weeks of active treatment (48 μg Compound A total daily dose) and three (3) weeks randomized withdrawal period. […] After 14-day drug-free washout period, they received orally 48 μg (total daily dose) of Compound A for 28 days followed by either 0 or 48 μg (total daily dose) of Compound A for 21 days.
In this study, the following parameters were evaluated. • 1) Bowel movements per week • 2) Abdominal bloating • 3) Abdominal discomfort • 4) Severity of Constipation • 5) Straining • 6) Consistency
Each parameter (Abdominal bloating, Abdominal discomfort, Severity of Constipation or Straining) was evaluated on the scale of: 0 (absent), 1 (mild), 2 (moderate), 3 (severe) and 4 (very severe) in the patients. Consistency was evaluated on a scale of: 0 (very loose), 1 (loose), 2 (normal), 3 (hard) and 4 (very hard, little balls)

[6] = Week 50 after start of 48-week treatment
[7] = 48 μg/day for 28 days, then 3 weeks withdrawal

CCCCC(F)(F)C(=O)CCC1C(O)CC(=O)C1CCCCCCC(=O)O (stereo not drawn) [Compound A, 13,14-dihydro-15-keto-16,16-difluoro-PGE1]
Effect on weekly number of spontaneous bowel movements by age (FIG. 14) [1]: significantly effective
Effect on sodium, potassium, chloride, calcium, magnesium and phosphorus ion concentration in serum ([2]; 48 μg/day, long-term administration up to 48 weeks): no effect
Mean serum Calcium ([2]; Week 0 (before treatment)): 9.61 mg/dL
Mean serum Chloride ([2]; Week 0 (before treatment)): 103.08 mmol/L
Mean serum Magnesium ([2]; Week 0 (before treatment)): 2.18 mg/dL
Mean serum Phosphorus ([2]; Week 0 (before treatment)): 3.65 mg/dL
Mean serum Potassium ([2]; Week 0 (before treatment)): 4.28 mmol/L
Mean serum Sodium ([2]; Week 0 (before treatment)): 141.00 mmol/L
Mean serum Calcium ([2]; Week 6, 48 μg/day oral): 9.90 mg/dL
Mean serum Chloride ([2]; Week 6, 48 μg/day oral): 103.00 mmol/L
Mean serum Magnesium ([2]; Week 6, 48 μg/day oral): 2.23 mg/dL
Mean serum Phosphorus ([2]; Week 6, 48 μg/day oral): 3.20 mg/dL
Mean serum Potassium ([2]; Week 6, 48 μg/day oral): 4.28 mmol/L
Mean serum Sodium ([2]; Week 6, 48 μg/day oral): 142.25 mmol/L
Mean serum Calcium ([2]; Week 12, 48 μg/day oral): 9.71 mg/dL
Mean serum Chloride ([2]; Week 12, 48 μg/day oral): 103.08 mmol/L
Mean serum Magnesium ([2]; Week 12, 48 μg/day oral): 2.24 mg/dL
Mean serum Phosphorus ([2]; Week 12, 48 μg/day oral): 3.57 mg/dL
Mean serum Potassium ([2]; Week 12, 48 μg/day oral): 4.20 mmol/L
Mean serum Sodium ([2]; Week 12, 48 μg/day oral): 139.78 mmol/L
Mean serum Calcium ([2]; Week 18, 48 μg/day oral): 9.30 mg/dL
Mean serum Chloride ([2]; Week 18, 48 μg/day oral): 105.50 mmol/L
Mean serum Magnesium ([2]; Week 18, 48 μg/day oral): 2.35 mg/dL
Mean serum Phosphorus ([2]; Week 18, 48 μg/day oral): 3.55 mg/dL
Mean serum Potassium ([2]; Week 18, 48 μg/day oral): 4.40 mmol/L
Mean serum Sodium ([2]; Week 18, 48 μg/day oral): 141.50 mmol/L
Mean serum Calcium ([2]; Week 24, 48 μg/day oral): 9.77 mg/dL
Mean serum Chloride ([2]; Week 24, 48 μg/day oral): 102.56 mmol/L
Mean serum Magnesium ([2]; Week 24, 48 μg/day oral): 2.21 mg/dL
Mean serum Phosphorus ([2]; Week 24, 48 μg/day oral): 3.61 mg/dL
Mean serum Potassium ([2]; Week 24, 48 μg/day oral): 4.19 mmol/L
Mean serum Sodium ([2]; Week 24, 48 μg/day oral): 139.21 mmol/L
Mean serum Calcium ([2]; Week 30, 48 μg/day oral): 9.10 mg/dL
Mean serum Chloride ([2]; Week 30, 48 μg/day oral): 100.00 mmol/L
Mean serum Magnesium ([2]; Week 30, 48 μg/day oral): 2.30 mg/dL
Mean serum Phosphorus ([2]; Week 30, 48 μg/day oral): 2.50 mg/dL
Mean serum Potassium ([2]; Week 30, 48 μg/day oral): 4.30 mmol/L
Mean serum Sodium ([2]; Week 30, 48 μg/day oral): 136.00 mmol/L
Mean serum Calcium ([2]; Week 36, 48 μg/day oral): 9.67 mg/dL
Mean serum Chloride ([2]; Week 36, 48 μg/day oral): 102.51 mmol/L
Mean serum Magnesium ([2]; Week 36, 48 μg/day oral): 2.19 mg/dL
Mean serum Phosphorus ([2]; Week 36, 48 μg/day oral): 3.58 mg/dL
Mean serum Potassium ([2]; Week 36, 48 μg/day oral): 4.18 mmol/L
Mean serum Sodium ([2]; Week 36, 48 μg/day oral): 138.94 mmol/L
Mean serum Calcium ([2]; Week 48, 48 μg/day oral): 9.66 mg/dL
Mean serum Chloride ([2]; Week 48, 48 μg/day oral): 102.88 mmol/L
Mean serum Magnesium ([2]; Week 48, 48 μg/day oral): 2.14 mg/dL
Mean serum Phosphorus ([2]; Week 48, 48 μg/day oral): 3.50 mg/dL
Mean serum Potassium ([2]; Week 48, 48 μg/day oral): 4.20 mmol/L
Mean serum Sodium ([2]; Week 48, 48 μg/day oral): 139.59 mmol/L
Mean serum Calcium [2, 6]: 9.47 mg/dL
Mean serum Chloride [2, 6]: 102.67 mmol/L
Mean serum Magnesium [2, 6]: 2.31 mg/dL
Mean serum Phosphorus [2, 6]: 3.54 mg/dL
Mean serum Potassium [2, 6]: 4.49 mmol/L
Mean serum Sodium [2, 6]: 139.11 mmol/L
Difference between the effects in male and female patients [3]: no significant difference
Effect on weekly number of spontaneous bowel movements (FIG. 13) ([3]; both male and female patients): significantly effective
Effect on QOL of the patients (SF-36) ([4]; 48 μg/day, 48 weeks): improves the QOL
SF36 Bodily Pain score, Mean ([4]; Baseline): 47.53
SF36 General Health score, Mean ([4]; Baseline): 51.52
SF36 Mental Health score, Mean ([4]; Baseline): 50.60
SF36 Physical Function score, Mean ([4]; Baseline): 49.04
SF36 Role-Emotional score, Mean ([4]; Baseline): 49.52
SF36 Role-Physical score, Mean ([4]; Baseline): 49.75
SF36 Social Function score, Mean ([4]; Baseline): 50.12
SF36 Vitality score, Mean ([4]; Baseline): 50.61
SF36 Bodily Pain score, Mean change from baseline ([4]; Week 48, 48 μg/day): 3.38**
SF36 General Health score, Mean change from baseline ([4]; Week 48, 48 μg/day): 1.47*
SF36 Mental Health score, Mean change from baseline ([4]; Week 48, 48 μg/day): 1.97**
SF36 Physical Function score, Mean change from baseline ([4]; Week 48, 48 μg/day): 2.48**
SF36 Role-Emotional score, Mean change from baseline ([4]; Week 48, 48 μg/day): 1.22
SF36 Role-Physical score, Mean change from baseline ([4]; Week 48, 48 μg/day): 1.95**
SF36 Social Function score, Mean change from baseline ([4]; Week 48, 48 μg/day): 2.22**
SF36 Vitality score, Mean change from baseline ([4]; Week 48, 48 μg/day): 2.89**
Quality of life of the patients ([5]; 48 μg/day): improved
Efficacy after stopping the treatment (FIGS. 7 to 12) [5, 7]: sustained
Rebound effect after discontinuation of treatment (FIGS. 7 to 12) [5, 7]: substantially no rebound effect
